Reference: PubChem BioAssay (NCI)
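Grown in 96-well plates, cells were treated for 48 hours with each compound at five concentrations. Insufficient inhibition: endpoint recorded as highest concentration tested. The concentration for full growth arrest is given as TGI.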

Legend:
Assay in all cases: DTP human tumour cell line panel, 48 h
[1] = tested on: 786-0 renal
[2] = tested on: A498 renal
[3] = tested on: A549 NSCLC
[4] = tested on: ACHN renal
[5] = tested on: BT-549 breast
[6] = tested on: CAKI-1 renal
[7] = tested on: CCRF-CEM leukemia
[8] = tested on: COLO 205 colon
[9] = tested on: EKVX NSCLC
[10] = tested on: HCT-116 colon
[11] = tested on: HCT-15 colon
[12] = tested on: HOP-62 NSCLC
[13] = tested on: HOP-92 NSCLC
[14] = tested on: HS 578T breast
[15] = tested on: HT29 colon
[16] = tested on: IGROV1 ovarian
[17] = tested on: K-562 leukemia
[18] = tested on: KM12 colon
[19] = tested on: LOX IMVI melanoma
[20] = tested on: M14 melanoma
[21] = tested on: MALME-3M melanoma
[22] = tested on: MCF7 breast
[23] = tested on: MDA-MB-231 breast
[24] = tested on: MDA-MB-435
[25] = tested on: MDA-N
[26] = tested on: MOLT-4 leukemia
[27] = tested on: NCI-H226 lung
[28] = tested on: NCI-H23 lung
[29] = tested on: NCI-H460 lung
[30] = tested on: NCI-H522 lung
[31] = tested on: NCI/ADR-RES ovarian
[32] = tested on: OVCAR-3 ovarian
[33] = tested on: OVCAR-4 ovarian
[34] = tested on: OVCAR-5 ovarian
[35] = tested on: OVCAR-8 ovarian
[36] = tested on: PC-3 prostate
[37] = tested on: RPMI-8226 leukemia
[38] = tested on: RXF 393 renal
[39] = tested on: SF-268 CNS
[40] = tested on: SF-295 CNS
[41] = tested on: SF-539 CNS
[42] = tested on: SK-MEL-2 melanoma
[43] = tested on: SK-MEL-5 melanoma
[44] = tested on: SK-OV-3 ovarian
[45] = tested on: SNB-19 CNS
[46] = tested on: SNB-75 CNS
[47] = tested on: SR leukemia
[48] = tested on: SW-620 colon
[49] = tested on: T-47D breast
[50] = tested on: TK-10 renal
[51] = tested on: U251 CNS
[52] = tested on: UACC-257 melanoma
[53] = tested on: UACC-62 melanoma
[54] = tested on: UO-31 renal
[55] = tested on: DU-145 prostate
[56] = tested on: HCC-2998 colon
[57] = tested on: SK-MEL-28 melanoma

`Cn1c(COC(=O)NC2CCCCC2)c(COC(=O)NC2CCCCC2)c2ccc3ccccc3c21` was tested, and the TGI [1] was > 100 µM, the TGI [2] was 32 µM and the TGI [3] was > 100 µM. The TGI [4] was 53.6 µM, the TGI [5] was > 100 µM and the TGI [6] was 70.6 µM. The TGI [7] was > 100 µM, the TGI [8] was > 100 µM and the TGI [9] was > 100 µM. For the same compound, the TGI [10] was > 100 µM, the TGI [11] was > 100 µM and the TGI [12] was > 100 µM. For the same compound, the TGI [13] was > 100 µM, the TGI [14] was > 100 µM and the TGI [15] was > 100 µM. For the same compound, the TGI [16] was > 100 µM, the TGI [17] was > 100 µM and the TGI [18] was > 100 µM. The TGI [19] was > 100 µM, the TGI [20] was > 100 µM and the TGI [21] was > 100 µM. For the same compound, the TGI [22] was > 100 µM, the TGI [23] was > 100 µM and the TGI [24] was > 100 µM. For the same compound, the TGI [25] was > 100 µM, the TGI [26] was > 100 µM and the TGI [27] was 95.8 µM. For the same compound, the TGI [28] was 71.6 µM, the TGI [29] was 13.5 µM and the TGI [30] was 31.5 µM. The TGI [31] was 62 µM, the TGI [32] was > 100 µM and the TGI [33] was > 100 µM. For the same compound, the TGI [34] was > 100 µM, the TGI [35] was > 100 µM and the TGI [36] was > 100 µM. For the same compound, the TGI [37] was > 100 µM, the TGI [38] was 83.3 µM and the TGI [39] was > 100 µM. For the same compound, the TGI [40] was > 100 µM, the TGI [41] was 66.2 µM and the TGI [42] was 93.4 µM. For the same compound, the TGI [43] was > 100 µM, the TGI [44] was > 100 µM and the TGI [45] was > 100 µM. The TGI [46] was 78.9 µM, the TGI [47] was > 100 µM and the TGI [48] was > 100 µM. For the same compound, the TGI [49] was > 100 µM, the TGI [50] was > 100 µM and the TGI [51] was > 100 µM. The TGI [52] was > 100 µM, the TGI [53] was > 100 µM and the TGI [54] was > 100 µM.

With `CCOC(=O)NCC(=O)NCC(=O)NCC(N)=O` the TGI [1] was > 100 µM, the TGI [3] was > 100 µM and the TGI [4] was > 100 µM. For the same compound, the TGI [5] was > 100 µM, the TGI [6] was > 100 µM and the TGI [7] was > 100 µM. The TGI [8] was > 100 µM, the TGI [55] was > 100 µM and the TGI [9] was > 100 µM. For the same compound, the TGI [56] was > 100 µM, the TGI [10] was > 100 µM and the TGI [11] was > 100 µM. The TGI [12] was > 100 µM, the TGI [14] was > 100 µM and the TGI [15] was > 100 µM. The TGI [16] was > 100 µM, the TGI [17] was > 100 µM and the TGI [18] was > 100 µM. The TGI [20] was > 100 µM, the TGI [21] was > 100 µM and the TGI [22] was > 100 µM. For the same compound, the TGI [23] was > 100 µM, the TGI [24] was > 100 µM and the TGI [25] was > 100 µM. For the same compound, the TGI [26] was > 100 µM, the TGI [27] was > 100 µM and the TGI [28] was > 100 µM. The TGI [30] was > 100 µM, the TGI [31] was > 100 µM and the TGI [32] was > 100 µM. For the same compound, the TGI [33] was > 100 µM, the TGI [34] was > 100 µM and the TGI [35] was > 100 µM. The TGI [36] was > 100 µM, the TGI [37] was > 100 µM and the TGI [38] was > 100 µM. The TGI [39] was > 100 µM, the TGI [40] was > 100 µM and the TGI [42] was > 100 µM. The TGI [57] was > 100 µM, the TGI [43] was > 100 µM and the TGI [44] was > 100 µM. The TGI [45] was > 100 µM, the TGI [47] was > 100 µM and the TGI [48] was > 100 µM. For the same compound, the TGI [49] was > 100 µM, the TGI [50] was > 100 µM and the TGI [51] was > 100 µM. The TGI [52] was > 100 µM, the TGI [53] was > 100 µM and the TGI [54] was > 100 µM.
